Assay [1] deals with SW480 colon carcinoma cells. As to the kind of experiment: Cell viability assay (CellTiter-Glo) in SW480 cells. The note with it: four days. It is filed as cell-based, human. On the procedure: SW480 colon carcinoma cells were transduced with a lentiviral vector expressing luciferase with a human Sp5 promoter consisting of a sequence of eight TCF/LEF binding sites. SW480 cells stably expressing the Sp5-Luc reporter gene and a hygromycin resistance gene were selected by treatment with 150 µg/mL of hygromycin for 7 days. These stably transduced SW480 cells were expanded in cell culture and used for all further screening activities.
For the Cell Viability Assays, the cells were plated at 2,000 cells/well in 384-well plates with a DMEM medium containing 1% fetal bovine serum, and 1% Penicillin-Streptomycin and incubated for […] at 37° C. and 5% CO2. Eight replicates of DMSO-treated cells served as controls and cells treated with compound were performed in duplicate.
After incubation, 10 μL of CellTiter-Glo (Promega) was added to each well allowed to incubate for approximately 12 minutes. This reagent “results in cell lysis and generation of a luminescent signal proportional to the amount of ATP present. The amount of ATP is directly proportional to the number of cells present in culture, in agreement with previous reports. The CellTiter-Glo® Assay generates a “glow-type” luminescent signal, produced by the luciferase reaction (Promega.com)”.
In general terms: In ATP-based viability assays light output follows the ATP content of the culture.

For assay [2], the target named is recombinant DYRK1A kinase (Homo sapiens (Human), UniProt Q13627). As to the kind of experiment: DYRK1A kinase assay (Ser/Thr 18 peptide Z-lyte, FRET).
Method: Each compound was dissolved in DMSO as a 10 mM stock and used to prepare compound source plates.
This is a non-radioactive assay using fluorescence resonance energy transfer (FRET) between coumarin and fluorescein to detect kinase activity which is represented as a ratio of coumarin emission/fluorescein emission.
The mixture was allowed to incubate with the representative compounds for one hour at room temperature. All reactions were performed in duplicate. Unphosphorylated (“0% Control”) and phosphorylated (“100% control”) forms of Ser/Thr 18 served as control reactions. Additionally, an 11-point dose-response curve of Staurosporine (1 uM top) was run to serve as a positive compound control.
After incubation, Development Reagent A was diluted in Development Buffer then added to the reaction and allowed to further incubate for one hour at room temperature.
Dose-response curves were generated and inhibitory concentration (IC50) values were calculated using non-linear regression curve fit in the Dotmatics' Studies Software (Bishops Stortford, UK).
In assay [3] the target is recombinant GSK3β kinase (Homo sapiens (Human), UniProt P49841). As to the kind of experiment: GSK3β kinase assay (Ser/Thr 09 peptide Z-lyte, FRET). In kind it is biochemical.
Chain of recombinant GSK3β kinase (P49841 whole entry): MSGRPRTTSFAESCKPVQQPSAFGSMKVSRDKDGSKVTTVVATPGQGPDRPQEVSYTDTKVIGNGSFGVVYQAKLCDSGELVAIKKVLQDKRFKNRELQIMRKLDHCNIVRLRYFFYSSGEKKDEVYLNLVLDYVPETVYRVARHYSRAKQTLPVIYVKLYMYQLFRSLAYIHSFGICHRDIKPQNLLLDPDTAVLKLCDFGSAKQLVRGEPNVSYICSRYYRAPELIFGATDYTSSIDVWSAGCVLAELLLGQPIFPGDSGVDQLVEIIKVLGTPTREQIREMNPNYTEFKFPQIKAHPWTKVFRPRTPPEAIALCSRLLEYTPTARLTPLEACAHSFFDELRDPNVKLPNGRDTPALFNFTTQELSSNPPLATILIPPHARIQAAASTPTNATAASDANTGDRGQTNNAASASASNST
The test system of assay [4] is Wnt-responsive promoter (Sp5-Luc reporter) in SW480 colon carcinoma cells. The assay can be described thus: Sp5-Luc reporter gene screening assay for Wnt activity in SW480 cells. In kind it is cell-based, human. The note with it: 36 to 48 hours, luminescence. From the text:
The screening assay for Wnt activity is described as follows. Reporter cell lines can be generated by stably transducing cancer cell lines (e.g., colon cancer) or primary cells (e.g., IEC-6 intestinal cells) with a lentiviral construct that includes a Wnt-responsive promoter driving expression of the firefly luciferase gene.
SW480 colon carcinoma cells were transduced with a lentiviral vector expressing luciferase with a human Sp5 promoter consisting of a sequence of eight TCF/LEF binding sites. SW480 cells stably expressing the Sp5-Luc reporter gene and a hygromycin resistance gene were selected by treatment with 150 μg/mL of hygromycin for 7 days. These stably transduced SW480 cells were expanded in cell culture and used for all further screening activities. […] For Sp5-Luc reporter gene assays, the cells were plated at 4,000 cells/well in 384-well plates with a DMEM medium containing 1% fetal bovine serum, and 1% Penicillin-Streptomycin and incubated for 36 to 48 hours at 37° C. and 5% CO2. Following incubation, 15 μl of BriteLite Plus luminescence reagent (Perkin Elmer) was added to each well of the 384-well assay plates. The plates were placed on an orbital shaker for 2 min and then luminescence was quantified using the Envision (Perkin Elmer) plate reader. Readings were normalized to DMSO only treated cells, and normalized activities were utilized for EC50 calculations using the dose-response log (inhibitor) vs. response −variable slope (four parameters) nonlinear regression feature available in GraphPad Prism 5.0 (or Dotmatics).
For orientation: Reporter assays use an easily measured gene product as a stand-in for the process of interest.

Assay [5] relates to IL-6. As to the kind of experiment: IL-6 inhibition in LPS-stimulated human peripheral blood mononuclear cells (HTRF). It is filed as cell-based. The note with it: huPBMCs, LPS 50 ng/mL, 22 hours, IL-6 HTRF. As to the method: Fresh Normal PB MNC (Catalog # PB001, AllCells, Alameda, Calif.) were shipped overnight at 4° C. and resuspended in Roswell Park Memorial Institute (RPMI) 1640 Medium, with GlutaMAX Supplement (Catalog #61870127, ThermoFisher Scientific, Waltham, Mass.) supplemented with 1% Penicillin-Streptomycin (Catalog #15140163, ThermoFisher Scientific, Waltham, Mass.) and 1% fetal bovine serum (FBS) (Catalog #16140089, ThermoFisher Scientific, Waltham, Mass.) assay media.
Fresh normal human peripheral blood mononuclear cells (huPBMCs) were resuspended in 1% FBS-RPMI assay media with 1% Penicillin-Streptomycin 1% to a cell concentration of 1×10e6 cells/mL. […] 50 ng/mL of Lipopolysaccharides from Escherichia coli 0111:B4 (Catalog #L5293-2ML, Sigma-Aldrich, St. Louis, Mo.) was added after 2 hours and cells were incubated for another 22 hours at 37° C.-5% CO2. After 22 hour incubation, a mixture of anti-IL6 XL665 and anti-IL-6 Cryptate diluted in reconstitution buffer (Catalog #62IL6PEC, Cisbio Inc., Bedford, Mass.) was added to each well. Following incubation for 3 hours at room temperature, Homogeneous Time-Resolved Fluorescence (HTRF) was measured using the Envision (Perkin Elmer, Shelton, Conn.) at 665 nm and […]. The ratio of fluorescence at 665 nm to 620 nm was used as a readout for IL-6 quantification. All samples were processed in duplicate. Readings were normalized to DMSO treated cells and normalized activities were utilized for EC50 calculations. EC50 was determined using software generated by Dotmatics Limited (Windhill Bishops Stortford Herts, UK) using the Levenberg-Marquardt 4 parameter fitting procedure with finite different gradients.
Background: Time-resolved FRET reads energy transfer from a long-lived donor to a nearby acceptor.

For assay [6], the system named is primary human fibroblasts derived from IPF patients (LL29 cells), α-smooth muscle actin. The assay can be described thus: Inhibition of fibrotic process: αSMA in TGF-β1 treated LL29 fibroblasts. In kind it is cell-based. Particulars: LL29 cells, TGF-β1 20 ng/mL, 4 days, % cells positive for αSMA. On the procedure: Representative compounds were screened using primary human fibroblasts (derived from IPF patients) treated with TGF-β1 to determine their ability to inhibit the fibrotic process.
LL29 cells were plated at 1,500 cells/well in 70 μL/well F12 medium supplemented with 1% Fetal Bovine Serum. […] Wells treated with TGF-β1 and containing DMSO were used as positive control, and cells with only DMSO were negative control. […] Following incubation for 4 days, SYTOX green nucleic acid stain (Life Technologies [Thermo Fisher Scientific]) was added to the wells at a final concentration of 1 μM and incubated at room temperature for 30 min.

Setting [7] is: DYRK1A kinase, 30 μM ATP, one hour, method calls values IC50.
Setting [8] is: GSK3β kinase, 46 μM ATP, one hour, method calls values IC50.

This note sets out measurements from patent US10744128B2, “6-(5-membered heteroaryl)isoquinolin-3-yl-(5-membered heteroaryl) carboxamides and preparation and use thereof” (Samumed, LLC, priority 2017, dated 2020).

Read-outs that look alike come from different tables or passages of the source.

One may read the EC50 as the concentration giving half of the maximal effect. Regarding `Cn1cncc1-c1ccc2cnc(NC(=O)c3cn(C4CCOCC4)cn3)cc2c1` [Compound 50, N-(6-(1-Methyl-1H-imidazol-5-yl)isoquinolin-3-yl)-1-(tetrahydro-2H-pyran-4-yl)-1H-imidazole-4-carboxamide], the 50% effective concentration (EC50) in assay [1] (Homo sapiens, 96 h) came out at 833 nM; in assay [2] (setting [7]), 21 nM; in assay [3] (setting [8]), 4490 nM; in assay [4] (Homo sapiens), 100 nM; in assay [5] (Homo sapiens, PBMC), 3280 nM; in assay [6] (Homo sapiens, Fibroblast, 96 h), 1180 nM.

Consider `CC(C)n1cnc(C(=O)Nc2cc3cc(-c4cncn4C)ccc3cn2)c1` [Compound 49, 1-Isopropyl-N-(6-(1-methyl-1H-imidazol-5-yl)isoquinolin-3-yl)-1H-imidazole-4-carboxamide], for which the EC50 came to 73 nM in assay [1] (Homo sapiens, 96 h); 2 nM in assay [2] (setting [7]); 1340 nM in assay [3] (setting [8]); 35 nM in assay [4] (Homo sapiens); 285 nM in assay [5] (Homo sapiens, PBMC); 86 nM in assay [6] (Homo sapiens, Fibroblast, 96 h).

`Cn1cc(-c2ccc3cnc(NC(=O)c4cn(C5CCN(CCF)CC5)nn4)cc3c2)cn1` [Compound 13, 1-(1-(2-Fluoroethyl)piperidin-4-yl)-N-(6-(1-methyl-1H-pyrazol-4-yl)isoquinolin-3-yl)-1H-1,2,3-triazole-4-carboxamide]: the 50% effective concentration (EC50) in assay [1] (Homo sapiens, 96 h) was found to be 485 nM; in assay [2] (setting [7]), 5 nM; in assay [3] (setting [8]) it was 2080 nM; in assay [4] (Homo sapiens), 120 nM; in assay [5] (Homo sapiens, PBMC), 3390 nM; in assay [6] (Homo sapiens, Fibroblast, 96 h), 260 nM.

Consider `CC(C)Cn1cc(C(=O)Nc2cc3cc(-c4cncn4C)ccc3cn2)cn1` [Compound 45, 1-Isobutyl-N-(6-(1-methyl-1H-imidazol-5-yl)isoquinolin-3-yl)-1H-pyrazole-4-carboxamide], for which the EC50 in assay [1] (Homo sapiens, 96 h) amounted to 111 nM; in assay [2] (setting [7]), 1 nM; in assay [3] (setting [8]), 1190 nM; in assay [4] (Homo sapiens), 55 nM; in assay [5] (Homo sapiens, PBMC), 414 nM; in assay [6] (Homo sapiens, Fibroblast, 96 h), 88 nM.

Consider `Cn1cc(-c2ccc3cnc(NC(=O)c4cnn(C5CCN(CCF)CC5)c4)cc3c2)cn1` [Compound 7, 1-(1-(2-Fluoroethyl)piperidin-4-yl)-N-(6-(1-methyl-1H-pyrazol-4-yl)isoquinolin-3-yl)-1H-pyrazole-4-carboxamide], for which the 50% effective concentration (EC50) in assay [1] (Homo sapiens, 96 h) worked out at 77 nM; in assay [2] (setting [7]) it was 3 nM; in assay [3] (setting [8]) it was 1500 nM; in assay [4] (Homo sapiens) it was 35 nM; in assay [5] (Homo sapiens, PBMC), 145 nM; in assay [6] (Homo sapiens, Fibroblast, 96 h), 47 nM.

Turning to `CN1CCC(n2cc(C(=O)Nc3cc4cc(-c5cnn(C)c5)ccc4cn3)nn2)CC1` [Compound 12, N-(6-(1-Methyl-1H-pyrazol-4-yl)isoquinolin-3-yl)-1-(1-methylpiperidin-4-yl)-1H-1,2,3-triazole-4-carboxamide], the EC50 is 470 nM in assay [1] (Homo sapiens, 96 h); 9 nM in assay [2] (setting [7]); 3630 nM in assay [3] (setting [8]); 105 nM in assay [4] (Homo sapiens); 3750 nM in assay [5] (Homo sapiens, PBMC); 983 nM in assay [6] (Homo sapiens, Fibroblast, 96 h).

Take `[2H]C([2H])([2H])n1cc(-c2ccc3cnc(NC(=O)c4cnn(C5CCN(C)CC5)c4)cc3c2)cn1` [Compound 5, N-(6-(1-(Methyl-d3)-1H-pyrazol-4-yl)isoquinolin-3-yl)-1-(1-methylpiperidin-4-yl)-1H-pyrazole-4-carboxamide]: the EC50 is 34 nM in assay [1] (Homo sapiens, 96 h); 2 nM in assay [2]; 2060 nM in assay [3]; 22 nM in assay [4] (Homo sapiens); 218 nM in assay [5] (Homo sapiens, PBMC); 84 nM in assay [6] (Homo sapiens, Fibroblast, 96 h).

In the case of `Cc1nnc(-c2ccc3cnc(NC(=O)c4coc(C5CCNCC5)n4)cc3c2)s1` [Compound 68, N-(6-(5-Methyl-1,3,4-thiadiazol-2-yl)isoquinolin-3-yl)-2-(piperidin-4-yl) oxazole-4-carboxamide], the 50% effective concentration (EC50) in assay [1] (Homo sapiens, 96 h) was 414 nM; in assay [2] (setting [7]) it was 74 nM; in assay [3] (setting [8]) it was 666 nM; in assay [4] (Homo sapiens) it was 122 nM; in assay [5] (Homo sapiens, PBMC), 2640 nM; in assay [6] (Homo sapiens, Fibroblast, 96 h) it was 2580 nM.

As for `CCn1cc(C(=O)Nc2cc3cc(-c4cncn4C)ccc3cn2)cn1` [Compound 41, 1-Ethyl-N-(6-(1-methyl-1H-imidazol-5-yl)isoquinolin-3-yl)-1H-pyrazole-4-carboxamide], the EC50 was 102 nM in assay [1] (Homo sapiens, 96 h); 2 nM in assay [2] (setting [7]); 850 nM in assay [3] (setting [8]); 37 nM in assay [4] (Homo sapiens); 618 nM in assay [5] (Homo sapiens, PBMC); 122 nM in assay [6] (Homo sapiens, Fibroblast, 96 h).

With `Cc1ncc(-c2ccc3cnc(NC(=O)c4cnn(C5CCN(C)CC5)c4)cc3c2)o1` [Compound 63, N-(6-(2-Methyloxazol-5-yl)isoquinolin-3-yl)-1-(1-methylpiperidin-4-yl)-1H-pyrazole-4-carboxamide], the EC50 in assay [1] (Homo sapiens, 96 h) is 58 nM; in assay [2] (setting [7]) it was 2 nM; in assay [3] (setting [8]), 611 nM; in assay [4] (Homo sapiens) it was 34 nM; in assay [5] (Homo sapiens, PBMC), 298 nM; in assay [6] (Homo sapiens, Fibroblast, 96 h), 113 nM.

With “2-(1-Isopropylpiperidin-4-yl)-N-(6-(1-methyl-1H-pyrazol-4-yl)isoquinolin-3-yl)thiazole-4-carboxamide [Compound 39]”, the EC50 in assay [1] was determined as 1190 nM; in assay [2] (setting [7]) it was 26 nM; in assay [3] (setting [8]) it was 3710 nM; in assay [4] it was 70 nM; in assay [5], 7590 nM; in assay [6], 3040 nM.

With `[2H]C([2H])([2H])n1cc(-c2ccc3cnc(NC(=O)c4coc(C5CCNCC5)n4)cc3c2)cn1` [Compound 16, N-(6-(1-(Methyl-d3)-1H-pyrazol-4-yl)isoquinolin-3-yl)-2-(piperidin-4-yl) oxazole-4-carboxamide], the EC50 is 113 nM in assay [1] (Homo sapiens, 96 h); 16 nM in assay [2]; 769 nM in assay [3]; 115 nM in assay [4] (Homo sapiens); 1070 nM in assay [5] (Homo sapiens, PBMC); 312 nM in assay [6] (Homo sapiens, Fibroblast, 96 h).
